Measured values from US20200337993A1, “INTRACANALICULAR HYDROGEL INSERTS FOR THE DELIVERY OF ANESTHETICS” (Ocular Therapeutix, Inc., priority 2019, published 2020).
Like-named read-outs stand apart in the source and are kept apart here.

Key:
[1] = In vitro release of bupivacaine from the Inventive Composition in PBS, pH 7.4 at 37° C.; type: physicochemical
[2] = Bupivacaine concentrations in tear fluid after intracanalicular administration (LC/MS of Schirmer strip samples); type: in vivo, beagle dogs; settings: female, beagle, dog, other: intracanalicular, 160 μg; for concentration at 2 day: Day 2, N=3, intracanalicular Inventive Composition insert; for concentration at 3 day: Day 3, N=6, intracanalicular Inventive Composition insert; for concentration at 4 day: Day 4, N=6, intracanalicular Inventive Composition insert; for concentration at 5 day: Day 5, N=3, intracanalicular Inventive Composition insert
Procedure: Corneal wounds were created in both eyes (OU) of ten female beagle dogs on Day 0 using epithelial debridement. Animals were post-operatively monitored and treated with eye drops. The Inventive Composition (IC) containing approximately 160 μg of bupivacaine was inserted into the lower or upper lid punctum of one eye of all ten dogs on Day 0 after corneal wounding and removed on Day 7 after wounding. Clinical ophthalmic examinations (slit-lamp biomicroscopy) were conducted daily on weekdays through Day 7. Fluorescein staining was performed and slit-lamp photographs were taken on Days 0, 3, 5, and 7 (Group 1) or on Days 0, 2, 4, and 7 (Group 2). Corneal esthesiometry was performed at baseline and on Days 0, 3-7, 10-14, 31-35, and 38-42 (Group 1) or on Days 0-4, 7-11, 14, 28-32, and 35-39 (Group 2). General health observations and gross ocular observations were performed daily from Day 1 through Day 11 (Group 1) or Day 8 (Group 2). Body weights were recorded prior to dosing and on Day 7. Tears were collected on Days 3, 4, and 5 (Group 1) or on Days 1, 2, 3, and 4 (Group 2). The two groups were staggered in order to collect tear film samples on days 1, 2, 3, 4 and 5 using Schirmer test strips. Tear film samples were collected in the morning prior to administration of drops, in order to avoid dilution of the samples. Pre and post weights were collected on the tear film strips, and samples were sent to PharmOptima, LLC (Portage, Mich.) for bioanalysis via LC/MS. The PK portion of the study measured concentrations of bupivacaine released from the Inventive Composition into the tear fluid over 5 days following intracanalicular administration in beagle dogs and results are presented in Table 3. Tear fluid samples were collected pre-drop administration to prevent dilution of the bupivacaine concentrations. The PK profile indicates elevated concentrations of bupivacaine in the tear fluid through 4 days with a decrease observed at 5 days.

[3] = read-out: Bupivacaine concentration in tear fluid, Average
[4] = read-out: Bupivacaine concentration in tear fluid, Maximum
[5] = read-out: Bupivacaine concentration in tear fluid, Median
[6] = read-out: Bupivacaine concentration in tear fluid, Minimum

Bupivacaine Release Rate ([1]; in vitro sampling period 0-1 hours (burst phase)): 14.6 µg/h
Bupivacaine Release Rate ([1]; in vitro sampling period 1-18 hours): 3.4 µg/h
Bupivacaine Release Rate ([1]; in vitro sampling period 18-26 hours): 1.5 µg/h
Bupivacaine Release Rate ([1]; in vitro sampling period 26-42 hours): 1.1 µg/h
Bupivacaine Release Rate ([1]; in vitro sampling period 42-68 hours): 1.0 µg/h
Bupivacaine Release Rate ([1]; in vitro sampling period 68-93 hours): 0.6 µg/h
Bupivacaine Release Rate ([1]; in vitro sampling period 93-115 hours): 0.4 µg/h
Bupivacaine Release Rate ([1]; in vitro sampling period 115-168 hours): 0.1 µg/h
concentration at 1 day ([2]; Day 1, N=3, intracanalicular Inventive Composition insert (approx. 160 μg bupivacaine), Groups 1 and 2, read-out: Bupivacaine concentration in tear fluid, Average): 780 ng/mL
concentration at 1 day ([2]; Day 1, N=3, intracanalicular Inventive Composition insert, read-out: Bupivacaine concentration in tear fluid, Maximum): 1520 ng/mL
concentration at 1 day ([2]; Day 1, N=3, intracanalicular Inventive Composition insert, read-out: Bupivacaine concentration in tear fluid, Median): 550 ng/mL
concentration at 1 day ([2]; Day 1, N=3, intracanalicular Inventive Composition insert, read-out: Bupivacaine concentration in tear fluid, Minimum): 280 ng/mL
concentration at 2 day [2, 3]: 380 ng/mL
concentration at 2 day [2, 4]: 770 ng/mL
concentration at 2 day [2, 5]: 230 ng/mL
concentration at 2 day [2, 6]: 150 ng/mL
concentration at 3 day [2, 3]: 740 ng/mL
concentration at 3 day [2, 4]: 1520 ng/mL
concentration at 3 day [2, 5]: 590 ng/mL
concentration at 3 day [2, 6]: 100 ng/mL
concentration at 4 day [2, 3]: 570 ng/mL
concentration at 4 day [2, 4]: 1180 ng/mL
concentration at 4 day [2, 5]: 450 ng/mL
concentration at 4 day [2, 6]: 80 ng/mL
concentration at 5 day [2, 3]: 250 ng/mL
concentration at 5 day [2, 4]: 430 ng/mL
concentration at 5 day [2, 5]: 230 ng/mL
concentration at 5 day [2, 6]: 100 ng/mL
SMILES: CCCCN1CCCCC1C(=O)Nc1c(C)cccc1C (stereo not shown) [Bupivacaine, bupivacaine]
